Ki, Activity and EC50 data for 26 molecules are collected here from ChEMBL document CHEMBL1127919 (Bioorg Med Chem Lett, 1994).

For one experiment, the target named is Melatonin receptor (Gallus gallus, UniProt P49288+P51050+P49285). The experiment in a line: Binding affinity towards melatonin receptor was determined using 2-[125I]iodomelatonin as radioligand in chick brain membranes. It is filed as cell membranes, Membrane.
The species named for experiment [1] is Xenopus laevis. As to the kind of experiment: Agonistic activity was determined in a pigment aggregation model using cultured melanophores isolated from the neural crest of Xenopus laevis embryos. It is filed as functional. The note with it: frog; filed as agonist.
Experiment [2] is filed under the species Xenopus laevis. As to the kind of experiment: Agonistic activity was determined in a pigment aggregation model using cultured melanophores isolated from the neural crest of Xenopus laevis embryos; partial agonist. The note with it: frog; filed as partial agonist. It is filed as functional.
For experiment [3], the species on record is Xenopus laevis. The experiment in a line: Agonistic activity was determined in a pigment aggregation model using cultured melanophores isolated from the neural crest of Xenopus laevis embryos. It is filed as functional, frog.
Experiment [4] is filed under the species Xenopus laevis. As to the kind of experiment: Agonistic activity was determined in a pigment aggregation model using cultured melanophores isolated from the neural crest of Xenopus laevis embryos; inactive. It is filed as functional. The note with it: frog.
Experiment [5] is filed under the species Xenopus laevis. The experiment in a line: Agonistic activity was determined in a pigment aggregation model using cultured melanophores isolated from the neural crest of Xenopus laevis embryos; mixed. It is filed as functional. The note with it: frog; filed as partial agonist.

The structures appear in SMILES notation. Calls of active or inactive are those of the source. No cut-off for these calls is given here. A value given as a limit tells only on which side of the number the result lay.

One may read the Ki as the equilibrium dissociation constant of an inhibitor or competing ligand from its target. A low value points to higher affinity. At Melatonin receptor, `COc1ccc2[nH]c3c(c2c1)CC(NC(=O)C(F)(F)F)CC3` (stereo not given) displayed a Ki of 102 nM.

The molecule `CCC(=O)NC1CCc2[nH]c3ccc(OC)cc3c2C1` (stereo not given) displayed a Ki at Melatonin receptor of 41 nM.

On Melatonin receptor, `CCC(Br)C(=O)NC1CCc2[nH]c3ccccc3c2C1` (stereo not given) gave a Ki above 10000 nM.

In turn, `O=C(NC1CCc2[nH]c3ccccc3c2C1)C(F)(F)F` (stereo not given) had an inhibitory constant (Ki) on Melatonin receptor of 4630 nM.

As for `COc1ccc2c(c1)c1c(n2C)CCCC1NC(=O)C1CC1` (stereo not given), the Activity result in the experiment listed under Xenopus laevis [1] is “Agonist”. This molecule displayed a Ki on Melatonin receptor of 30 nM.

Consider `COc1ccc2[nH]c3c(c2c1)CC(NC(=O)C1CC1)CC3` (stereo not given), for which the Activity entry in the experiment filed under Xenopus laevis [1] was “Agonist”. At Melatonin receptor, this molecule returned a Ki of 570 nM.

The EC50 is the concentration at which the effect is half-maximal. A higher EC50 goes with weaker potency. `O=C(CBr)NC1CCc2[nH]c3ccccc3c2C1` (stereo not given) gave an inhibitory constant (Ki) on Melatonin receptor of 740 nM. In the experiment filed under Xenopus laevis [2], the Activity result was “Partial agonist”. In the experiment filed under Xenopus laevis [3], this molecule yielded an EC50 below 1000 nM.

With `CCCC(=O)NC1CCc2[nH]c3ccc(OC)cc3c2C1` (stereo not given), the Activity result in the experiment filed under Xenopus laevis [1] was “Agonist”. This molecule yielded an inhibition constant (Ki) at Melatonin receptor of 560 nM. The molecule also yielded a concentration giving a half-maximal response (EC50) in the experiment filed under Xenopus laevis [3] of 10000 nM.

`CCCC(=O)NC1CCc2[nH]c3ccccc3c2C1` (stereo not given) came in with a Ki at Melatonin receptor of 1060 nM. In the experiment listed under Xenopus laevis [4], the outcome was inactive.

As for `Cn1c2c(c3ccccc31)C(NC(=O)C1CC1)CCC2` (stereo not given), the Activity result in the experiment listed under Xenopus laevis [1] is “Agonist”. In addition, the Ki on Melatonin receptor was found to be 4460 nM.

`COc1ccc2[nH]c3c(c2c1)CC(NC(C)=O)CC3` (stereo not given): the Activity result in the experiment filed under Xenopus laevis [1] is “Agonist”. This molecule also returned a Ki on Melatonin receptor of 219 nM.

Molecule `CC(=O)NC1CCc2[nH]c3ccccc3c2C1` (stereo not given) registered an inhibition constant (Ki) on Melatonin receptor of 5350 nM.

Take `CCC(=O)NC1CCCc2c1c1ccccc1n2C` (stereo not given): the Activity result in the experiment listed under Xenopus laevis [1] was “Agonist”. The molecule also came in with an inhibition constant Ki at Melatonin receptor of 204 nM.

For the molecule `CCCCC(=O)NC1CCCc2c1c1cc(OC)ccc1n2C` (stereo not given), the Activity entry in the experiment filed under Xenopus laevis [1] is “Agonist”. Besides, the inhibition constant (Ki) on Melatonin receptor came to 82 nM.

Take `COc1ccc2c(c1)c1c(n2C)CCCC1NC(=O)C1CCC1` (stereo not given): the Activity entry in the experiment listed under Xenopus laevis [1] was “Agonist”. In addition, on Melatonin receptor, the inhibitory constant (Ki) stood at 271 nM.

As for `COc1ccc2[nH]c3c(c2c1)CC(NC(=O)CBr)CC3` (stereo not given), in the experiment filed under Xenopus laevis [5], the Activity entry was “Partial agonist”. The Ki at Melatonin receptor came out at 8.3 nM.

Consider `COc1ccc2c(c1)c(CCNC(C)=O)cn2C`, for which the Ki at Melatonin receptor stood at 254 nM.

`COc1ccc2c(c1)c1c(n2C)CCCC1NC(=O)C(F)(F)F` (stereo not given): in the experiment filed under Xenopus laevis [1], the Activity entry was “Agonist”. The Ki on Melatonin receptor worked out at 1.98 nM.

With `CCCCC(=O)NC1CCCc2c1c1ccccc1n2C` (stereo not given), in the experiment filed under Xenopus laevis [1], the Activity result is “Agonist”. Moreover, the Ki at Melatonin receptor is above 10000 nM.

In the case of `CCC(=O)NC1CCCc2c1c1cc(OC)ccc1n2C` (stereo not given), the Activity entry in the experiment filed under Xenopus laevis [1] is “Agonist”. The molecule further yielded an inhibition constant (Ki) on Melatonin receptor of 1.44 nM.

`CC(=O)NC1CCCc2c1c1ccccc1n2C` (stereo not given): in the experiment filed under Xenopus laevis [1], the Activity result is “Agonist”. The molecule further registered a Ki at Melatonin receptor of 227 nM.

In turn, `CCC(=O)NC1CCc2[nH]c3ccccc3c2C1` (stereo not given) yielded a Ki at Melatonin receptor of 436 nM. The Activity entry in the experiment filed under Xenopus laevis [2] was “Partial agonist”. The molecule also gave a concentration giving a half-maximal response (EC50) in the experiment listed under Xenopus laevis [3] above 10000 nM.

On to `CCCC(=O)NC1CCCc2c1c1ccccc1n2C` (stereo not given), for which the Activity result in the experiment filed under Xenopus laevis [1] is “Agonist”. The Ki on Melatonin receptor came to 215 nM.

Turning to `CCCC(=O)NC1CCCc2c1c1cc(OC)ccc1n2C` (stereo not given), in the experiment listed under Xenopus laevis [1], the Activity entry was “Agonist”. Also, the inhibition constant (Ki) on Melatonin receptor is 0.378 nM. For the same molecule, the EC50 in the experiment listed under Xenopus laevis [3] came to 2.5 nM.

`COc1ccc2c(c1)c1c(n2C)CCCC1NC(C)=O` (stereo not given): the Activity result in the experiment listed under Xenopus laevis [1] was “Agonist”. At Melatonin receptor, this molecule registered a Ki of 0.97 nM.

As for `Cn1c2c(c3ccccc31)C(NC(=O)C(F)(F)F)CCC2` (stereo not given), the Activity result in the experiment filed under Xenopus laevis [1] was “Agonist”. Further, the Ki on Melatonin receptor is recorded as 766 nM.
